Experimental data taken from the NIST ThermoML archive (doi:10.1021/je7001623).

Details: 101.33 kPa, Liquid; for mass density: Vibrating tube method; for viscosity: surface light scattering

CC(C)CCCCCCCOC(=O)c1ccccc1C(=O)OCCCCCCCC(C)C
Details	mass density [kg/m3]	viscosity [mPa·s]
273.14 K	980.74	–
278.15 K	977.13	–
283.15 K	973.51	265.6
288.15 K	969.94	177.4
293.15 K	966.43	123.8
298.15 K	–	88.44
298.16 K	962.9	–
303.15 K	–	64.84
303.16 K	959.36	–
308.15 K	–	48.98
308.16 K	955.81	–
313.15 K	–	38.01
313.16 K	952.27	–
318.16 K	948.73	–
323.16 K	945.19	–
328.16 K	941.65	–
333.16 K	938.12	–
338.16 K	934.6	–
348.15 K	927.54	–
353.15 K	924.02	–
358.15 K	920.5	–
363.15 K	916.95	–
